Assay results: US20030008897A1, “Method of controlling weight gain associated with therapeutic drugs” (priority 2000, published 2003)

Experiments:
[1] = target: [3H]Noradenaline reuptake (Rattus norvegicus, UniProt Q9WTR4); assay: in vitro [3H]noradrenaline reuptake inhibition in rat brain tissue; assay type: biochemical; conditions: means of ≧3 separate determinations
[2] = test system: female Sprague-Dawley rats; assay: clozapine-induced hyperphagia (food intake) in rats; assay type: in vivo, rat; conditions: for Mean food intake ± SEM: 3 mg/kg orally, food intake over 2 h, n=10, vehicle 6.5 ± 0.9
Description: Experiments were performed in individually-housed female Sprague-Dawley rats with free access to food (powdered rat chow containing 20% lard) and tap water at all times. On the day of the experiment, animals (n=10) were dosed orally with vehicle; the neuroleptic clozapine 3 mg/kg; sibutramine 3 mg/kg or sibutramine plus clozapine 3 mg/kg; and their food intake was monitored over 2 h.

| Compound | Ki [1] | Mean food intake ± SEM [2] | effect on food intake compared to vehicle-treated control group ([2]; 3 mg/kg po, over 2 h) |
| --- | --- | --- | --- |
| CC(NC(C)(C)C)C(=O)c1cccc(Cl)c1 (stereo not shown) [Bupropion] | 2590 nM |  |  |
| CN1CCN(C2=Nc3cc(Cl)ccc3Nc3ccccc32)CC1 [Clozapine] |  | 9.3 ± 0.7 g/kg |  |
| CC(C)CC(N(C)C)C1(c2ccc(Cl)cc2)CCC1 (stereo not shown) [Sibutramine, N,N-dimethyl-1-[1-(4-chlorophenyl)cyclobutyl]-3-methylbutylamine] |  | 1.7 ± 0.6 g/kg | significantly decreased food intake |
